Measured values reported in US4084006A, “Method of using dialkylphenols an antiviral agents” (priority 1977, dated 1978).

Key:
[1] = system: San Carlos virus; experiment: Dimethylphenols against San Carlos virus in tissue culture (human embryonic lung), CPE; format: cell-based, San Carlos virus (adenovirus); settings: for CPE with TCID50 doses of San Carlos virus: human embryonic lung, 100 TCID50
[2] = system: Mycoplasma pulmonis (ATCC 19612); experiment: Serum antibodies for Mycoplasma in rats; format: in vivo, Mycoplasma pulmonis (host: rat); settings: one part per million; two of 19 infected rats in all groups, the other a control
Excerpt: (§1) Attempts were made to test the effect of infecting rats with Mycoplasma pulmonis (ATCC 19612) so that they could transmit the disease to their cage mates and, also allowed them to breed. This was also done to test if the mothers would pass the infection on to their litters. These rats were purchased from a laboratory in Indianapolis, Indiana and they were divided into 6 groups with male animals in each group. In the 5 experimental groups, a total of 15 female rats out of 30, and in the control group 4 female rats out of 8 were infected intranasally with Mycoplasma pulmonis (ATCC 19612). There were two male rats per experimental group and 3 for the controls totaling 13 male rats, and none of these were infected with M. pulmonis.
(§2) The experimental groups (8 rats each) and control group were treated as follows:
(§3) All rats were fed ad libitum rat chow, and their cages were cleaned 5-6 times weekly. For the 5 experimental groups, the 2,4 DMP was dissolved in distilled water used for their drinking fluid while the control only received distilled water. There were times when the rats spilled excessive amounts of their drinking water and this caused a certain amount of the phenol to be evaporated from these cages, particularly those groups receiving the higher concentrations of the phenol. […]

[3] = system: San Carlos virus; experiment: Inhibition of cytopathic activity (CPE) of San Carlos virus in HEL tissue culture; format: cell-based, San Carlos virus (adenovirus); settings: for CPE with 100 TCID50 doses of San Carlos virus: HEL cells
Method: (§4) The anti-viral activity of 2,4-dimethylphenol was studied in the following manner. Tissue cultures derived from human embryonic lung (HEL) were grown and maintained as monolayers in 32 ounce prescription bottles using growth medium consisting of 85% synthetic mixture No. 199 plus 15% unfiltered fetal bovine serum (FBS) adjusted to pH 7.4. Tube cultures of HEL cells were prepared in similar fashion and used in assays for anti-viral activity. During chemotherapy tests, the maintenance medium consisted of synthetic mixture No. 199 with 7.5% FBS. The virus spectrum in tissue culture consisted of two DNA viruses, a San Carlos virus isolated by Davis [see Science 133, 2059, 1961] and later identified as an adenovirus, and the HF strain of herpes simplex virus. In addition, a RNA virus represented by measles was included in the examples.
(§5) In performing the initial assays, the tissue cultures were treated prophylactically and the virus was treated in vitro with decreasing 2,4-dimethylphenol concentrations ranging from […] (2 × 10^-6) to 2 attograms (ag) (2 × 10^-18) per ml. The procedure consisted of pretreating tube cultures of HEL cells for two to three days with growth medium containing varying concentrations of 2,4-dimethylphenol. After the prophylactic treatment, the test fluids were removed and replaced with fresh maintenance medium. At this time, 200 TCID50 doses of virus were mixed in vitro with the same decreasing concentrations of the distillate used to pretreat the cells, then the mixture was inoculated into replicate culture of HEL cells so that the final incolum consisted of 100 TCID50 doses of virus in tubes with 2,4-dimethylphenol at the same level used to prophylactically treat the cells.
(§6) The same number of infected control tubes were handled in the same way except that 2,4-dimethylphenol was omitted from all media. Culture tubes were rotated at 37° C. and examined daily for a period of 7 days for cytopathic activity (CPE). […] By the same token, the CPE of herpes virus was inhibited by both the 10^-12 and 10^-15 level, possibly indicating two active components. […]

[4] = system: Mycoplasma pulmonis (ATCC 19612); experiment: Rats infected intranasally with Mycoplasma pulmonis: lung pathology and breeding; format: in vivo, Mycoplasma pulmonis (host: rat); settings: 1 PPB in drinking water 58 days; three M. pulmonis infected female rats
Excerpt: as §1, §2, §3

[5] = system: Herpes simplex virus (HF strain); experiment: Inhibition of cytopathic activity (CPE) of herpes virus in HEL tissue culture; format: cell-based; settings: for CPE with 100 TCID50 doses of Herpes virus: HEL cells
Method: as §4, §5, §6

## Cc1ccc(O)c(C)c1 [2,4-dimethylphenol]
[1]; 10^-6 grams 2X
  CPE with TCID50 doses of San Carlos virus: 3+ (75% of cells infected with selected virus)
[1]; 10^-7 grams 2X
  CPE with TCID50 doses of San Carlos virus: 2+ (50% of cells infected with selected virus)
[1]; 10^-8 grams 2X
  CPE with TCID50 doses of San Carlos virus: ± (less than 10% infected)
[1]; 10^-9 grams 2X
  CPE with TCID50 doses of San Carlos virus: ± (less than 10% infected)
[1]; 10^-10 grams 2X
  CPE with TCID50 doses of San Carlos virus: ± (less than 10% infected)
[1]; 10^-11 grams 2X
  CPE with TCID50 doses of San Carlos virus: 1+ (25% of cells infected with selected virus)
[1]; 10^-12 grams 2X
  CPE with TCID50 doses of San Carlos virus: 1+ (25% of cells infected with selected virus)
[1]; 10^-13 grams 2X
  CPE with TCID50 doses of San Carlos virus: 1+ (25% of cells infected with selected virus)
[1]; 10^-14 grams 2X
  CPE with TCID50 doses of San Carlos virus: 2+ (50% of cells infected with selected virus)
[1]; 10^-15 grams 2X
  CPE with TCID50 doses of San Carlos virus: 2+ (50% of cells infected with selected virus)
[1]; at various concentrations
  anti-viral activity against San Carlos virus: exhibit anti-viral activity
[2]
  M. pulmonis infected rats with detectable Mycoplasma antibody titers: One
[3]; 2,4-dimethylphenol 10^-4 grams 2X
  CPE with 100 TCID50 doses of San Carlos virus: 4+ (100% of cells infected with selected virus)
[3]; 10^-5 grams 2X
  CPE with 100 TCID50 doses of San Carlos virus: 2+ (50% of cells infected with selected virus)
[3]; 10^-6 grams 2X
  CPE with 100 TCID50 doses of San Carlos virus: 2+ (50% of cells infected with selected virus)
[3]; 10^-7 grams 2X
  CPE with 100 TCID50 doses of San Carlos virus: 1+ (25% of cells infected with selected virus)
[3]; 10^-8 grams 2X
  CPE with 100 TCID50 doses of San Carlos virus: 1+ (25% of cells infected with selected virus)
[3]; 10^-9 grams 2X
  CPE with 100 TCID50 doses of San Carlos virus: 1+ (25% of cells infected with selected virus)
[3]; 10^-10 grams 2X
  CPE with 100 TCID50 doses of San Carlos virus: 1+ (25% of cells infected with selected virus)
[3]; 10^-11 grams 2X
  CPE with 100 TCID50 doses of San Carlos virus: 1+ (25% of cells infected with selected virus)
[3]; 10^-12 grams 2X
  CPE with 100 TCID50 doses of San Carlos virus: 2+ (50% of cells infected with selected virus)
[3]; 10^-13 grams 2X
  CPE with 100 TCID50 doses of San Carlos virus: 2+ (50% of cells infected with selected virus)
[3]; 10^-14 grams 2X
  CPE with 100 TCID50 doses of San Carlos virus: 3+ (75% of cells infected with selected virus)
[3]; picograms, 10^-10 to 10^-12 per ml of medium
  inhibition of CPE produced by San Carlos virus: slight but consistent inhibition
[4]
  lung infection compared with the other four groups and the controls: for all practical purposes, clear of infection
[5]; 10^-6 grams 2X
  CPE with 100 TCID50 doses of Herpes virus: 3+ (75% of cells infected with selected virus)
[5]; 10^-7 grams 2X
  CPE with 100 TCID50 doses of Herpes virus: 3+ (75% of cells infected with selected virus)
[5]; 10^-8 grams 2X
  CPE with 100 TCID50 doses of Herpes virus: 2+ (50% of cells infected with selected virus)
[5]; 10^-9 grams 2X
  CPE with 100 TCID50 doses of Herpes virus: 2+ (50% of cells infected with selected virus)
[5]; 10^-10 grams 2X
  CPE with 100 TCID50 doses of Herpes virus: 2+ (50% of cells infected with selected virus)
[5]; 10^-11 grams 2X
  CPE with 100 TCID50 doses of Herpes virus: 2+ (50% of cells infected with selected virus)
[5]; 10^-12 grams 2X
  CPE with 100 TCID50 doses of Herpes virus: 1+ (25% of cells infected with selected virus)
[5]; 10^-13 grams 2X
  CPE with 100 TCID50 doses of Herpes virus: 2+ (50% of cells infected with selected virus)
[5]; 10^-14 grams 2X
  CPE with 100 TCID50 doses of Herpes virus: 3+ (75% of cells infected with selected virus)
[5]; 10^-15 grams 2X
  CPE with 100 TCID50 doses of Herpes virus: 1+ (25% of cells infected with selected virus)
[5]; 10^-16 grams 2X
  CPE with 100 TCID50 doses of Herpes virus: 4+ (100% of cells infected with selected virus)
[5]; 10^-17 grams 2X
  CPE with 100 TCID50 doses of Herpes virus: 4+ (100% of cells infected with selected virus)
[5]; 10^-18 grams 2X
  CPE with 100 TCID50 doses of Herpes virus: 2+ (50% of cells infected with selected virus)
[5]; both the 10^-12 and 10^-15 level
  CPE of herpes virus: inhibited
